Tested on: diabetic foot ulcer
Test: Clinical use of triclosan cream on diabetic foot ulcers (patients 1 and 2)
Assay type: in vivo, human
Text: A triclosan cream formulation, according to an embodiment of the invention (Example 5), was applied to a number of patients, with differently presented conditions and symptoms. as described below:
diabetic. Neuro ischaemic. Heart rate: pulse mono and biphasic depending on the weather. Indication of reduced arterial blood flow due to a blockage or low elasticity. Ex-smoker. Stage 3 Non healing dorsal diabetic foot ulcer.
The patient had 2 ulcers: • 1) one on the dorsal IPJ on the 2nd toe, size of 5 pence, 1 cm sq and • 2) one on apex of 1st toe, size of 5p, 1 cm sq.
The patient was treated twice a week. The ulcer was filled with the cream to the brim, so the cream was level with skin surface. […] Triclosan cream was applied for 8 weeks. The cream was packed into the wound and a non-adhesive foam dressing was applied. The patient then wore rocker bottom soles to reduce the weight and pressure. Treatment for this toe ulcer started on Mar. 11, 2017 and healed on 20/1/18. No other medication was used.
The patient had 1 ulcer on sole of foot, approximately the size of 50 pence.
While the patient was receiving chemotherapy, the triclosan cream was applied for 8 weeks. The triclosan cream was applied every alternate day, with a sharp debridement and cleansed with sterile saline solution prior to application of the cream. In the last two weeks of treatment the cream was applied daily. […]

In the case of `Cc1onc(-c2c(F)cccc2Cl)c1C(=O)N[C@@H]1C(=O)N2[C@@H]1SC(C)(C)[C@@H]2C(=O)O` [Flucloxacilin], the “outcome of previous treatment” value (Patient 1, before triclosan cream, Flucloxacilin 6 months intermittently, 6 courses) is reported as “could not clear the infection in the wound” and the “outcome of previous treatment” value (Patient 2, before triclosan cream) is reported as “could not clear the infection in the wound”.
